Where “and” joins values, the source holds several entries; their conditions need not be identical. Equal entries are not always repeated. Where two headings read alike, the source gives them in different places. Where only a bound is given, the exact number is not on record here.

Series [1] in a line: Cytotoxicity CC50 in Calu-3 lung epithelial cells. Type of series: cell-based, human. The conditions noted are these: human; for viability at 24 h, 3000 µM: Log [inhibitor] -2.52; for viability at 24 h, 1000 µM: Log [inhibitor] -3.00; for viability at 24 h, 300 µM: Log [inhibitor] -3.52; for viability at 24 h, 100 µM: Log [inhibitor] -4.00; for viability at 24 h, 30 µM: Log [inhibitor] -4.52; for viability at 24 h, 10 µM: Log [inhibitor] -5.00; for viability at 24 h, 3 µM: Log [inhibitor] -5.52; for viability at 24 h, 0.3 µM: Log [inhibitor] -6.52; for viability at 24 h, 0.03 µM: Log [inhibitor] -7.52; for viability at 24 h, 0.003 µM: Log [inhibitor] -8.52.

Series [2] deals with Calu-3 cells. The experiment in a line: Cytotoxicity CC50 in Calu-3 lung epithelial cells. It counts as cell-based, human. The conditions noted are these: single replicates.
Series [3] addresses human TMPRSS2 (Homo sapiens, UniProt O15393). Kind of series: cell-based. The conditions noted are these: for TMPRSS2 activity (%): Figure 1B, single experiments N1-N3; for inhibition at 0.01 µM: Vero C1008, 10 nM compound, 24 h, vs untreated/vehicle TMPRSS2-expressing Vero E6 cells, read-out: inhibition of TMPRSS2 activity (reduction of substrate proteolysis).
Series [4] concerns SARS-CoV-2 lineage B strain (VIDO). The experiment in a line: microbe, parasite or virus in culture. Type of series: cell-based.
Series [5] has as its target T1, Recombinant human DESC1 (Homo sapiens, UniProt Q9UL52).
T1 construct: made in house
T1 sequence (Q9UL52 1-423): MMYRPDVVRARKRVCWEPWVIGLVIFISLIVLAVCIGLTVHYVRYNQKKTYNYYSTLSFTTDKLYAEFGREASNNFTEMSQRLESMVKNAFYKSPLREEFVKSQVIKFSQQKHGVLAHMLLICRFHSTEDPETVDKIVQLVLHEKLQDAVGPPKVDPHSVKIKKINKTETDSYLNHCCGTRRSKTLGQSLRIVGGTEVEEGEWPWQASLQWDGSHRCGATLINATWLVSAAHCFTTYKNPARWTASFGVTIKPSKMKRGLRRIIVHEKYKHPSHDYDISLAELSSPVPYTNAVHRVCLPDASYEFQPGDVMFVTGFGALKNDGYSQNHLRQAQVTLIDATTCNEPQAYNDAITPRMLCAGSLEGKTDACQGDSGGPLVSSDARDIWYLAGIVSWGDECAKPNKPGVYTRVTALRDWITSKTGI
Kind of series: Protease selectivity, Ki on recombinant protease. Type of series: biochemical.

The target in series [6] is T2, human cathepsin L (Homo sapiens, UniProt P07711).
T2 construct: purchased Bio-Techne
The experiment in a line: Protease selectivity, Ki on protease. It counts as biochemical.

Series [7] concerns the target T3, human thrombin (Homo sapiens, UniProt P00734).
T3 construct: purchased MilliporeSigma
Kind of series: Protease selectivity, Ki on protease. Type of series: biochemical. The conditions noted are these: mean ± s.d., max concentration 10 µM; read-out: Ki Thrombin.

Series [8] addresses T4, Recombinant human furin (Homo sapiens, UniProt P09958).
T4 construct: purchased Bio-Techne
The experiment in a line: Protease selectivity, Ki on recombinant protease. The conditions noted are these: mean ± s.d., max concentration 10 µM; read-out: Ki Furin. It counts as biochemical.

The mark [9] stands for this setting: Calu-3 cells, read-out: % of Viability, Average (n=2).
Where [10] appears, read: Calu-3 cells, single replicates, read-out: % of Viability.
Setting [11] is: Calu-3 cells, unit not given for CC50, read-out: CC50.
Where [12] appears, read: single experiments N1-N3, Figure 1D, read-out: Individual Ki, Desc1.
Setting [13] is: single experiments N1-N4, Figure 1D, read-out: Individual Ki, Cathepsin L.
Where [14] appears, read: Figure 2a; two replicates; DMSO control about 91-94.
[15] abbreviates: Figure 2a; two replicates; DMSO control about 93-95.
Where [16] appears, read: Severe acute respiratory syndrome coronavirus 2, Calu-3; read-out: inhibition of SARS-CoV-2 infection.

human TMPRSS2, sequence (O15393 whole entry): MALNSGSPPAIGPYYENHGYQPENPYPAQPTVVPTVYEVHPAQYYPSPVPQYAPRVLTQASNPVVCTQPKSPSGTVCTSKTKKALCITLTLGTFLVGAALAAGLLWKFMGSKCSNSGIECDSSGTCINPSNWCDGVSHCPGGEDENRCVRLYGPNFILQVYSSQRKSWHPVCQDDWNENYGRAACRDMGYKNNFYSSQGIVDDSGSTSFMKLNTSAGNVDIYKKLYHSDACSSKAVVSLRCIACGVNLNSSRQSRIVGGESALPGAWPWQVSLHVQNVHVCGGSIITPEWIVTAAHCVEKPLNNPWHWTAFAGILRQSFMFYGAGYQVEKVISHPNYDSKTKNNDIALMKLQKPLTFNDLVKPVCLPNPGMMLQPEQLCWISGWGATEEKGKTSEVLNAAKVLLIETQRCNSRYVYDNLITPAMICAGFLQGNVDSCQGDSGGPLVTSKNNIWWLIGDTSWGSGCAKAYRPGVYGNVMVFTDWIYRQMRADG
T2 sequence (P07711 114-333): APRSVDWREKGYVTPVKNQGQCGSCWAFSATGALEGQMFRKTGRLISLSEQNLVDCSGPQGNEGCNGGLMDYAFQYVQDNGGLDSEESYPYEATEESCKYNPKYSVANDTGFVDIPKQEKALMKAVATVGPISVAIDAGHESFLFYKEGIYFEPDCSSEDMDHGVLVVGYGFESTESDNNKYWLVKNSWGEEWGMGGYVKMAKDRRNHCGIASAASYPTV
T4 sequence (P09958 108-794): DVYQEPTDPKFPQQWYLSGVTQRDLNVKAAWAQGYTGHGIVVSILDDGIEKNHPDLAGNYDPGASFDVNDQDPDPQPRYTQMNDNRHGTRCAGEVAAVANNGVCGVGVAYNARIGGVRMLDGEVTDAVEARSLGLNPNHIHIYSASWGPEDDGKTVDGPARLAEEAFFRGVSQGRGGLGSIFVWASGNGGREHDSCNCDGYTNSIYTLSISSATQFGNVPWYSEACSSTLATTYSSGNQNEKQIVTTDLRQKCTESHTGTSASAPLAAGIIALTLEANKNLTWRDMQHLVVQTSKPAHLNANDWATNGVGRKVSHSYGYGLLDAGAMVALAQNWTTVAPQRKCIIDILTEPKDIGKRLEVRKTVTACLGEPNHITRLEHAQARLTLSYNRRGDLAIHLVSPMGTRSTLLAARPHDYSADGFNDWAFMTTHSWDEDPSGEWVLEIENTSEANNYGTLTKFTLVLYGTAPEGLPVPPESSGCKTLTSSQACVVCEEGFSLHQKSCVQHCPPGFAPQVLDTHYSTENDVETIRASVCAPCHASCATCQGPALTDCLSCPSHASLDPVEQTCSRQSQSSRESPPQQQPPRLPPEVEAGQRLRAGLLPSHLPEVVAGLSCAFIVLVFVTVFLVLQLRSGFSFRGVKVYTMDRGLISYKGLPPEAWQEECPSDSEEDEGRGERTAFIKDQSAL

Take `CS(=O)(=O)N[C@@H](CCC(N)=O)C(=O)N[C@@H](Cc1ccccc1)C(=O)N[C@@H](CCCNC(=N)N)C(=O)c1nc2ccccc2s1` [Compound N-385]: in series [1] (setting [9]), the viability at 24 h, 3000 µM is 52.5%; the viability at 24 h, 1000 µM was determined as 80.5%; the viability at 24 h, 300 µM was 92%; the viability at 24 h, 100 µM worked out at 91%. For the same molecule, in series [1] (setting [9]), the viability at 24 h, 30 µM is 87%; the viability at 24 h, 10 µM came to 101%; the viability at 24 h, 3 µM was found to be 110%; the viability at 24 h, 0.3 µM worked out at 111%. In addition, in series [1] (setting [9]), the viability at 24 h, 0.03 µM came to 110% and the viability at 24 h, 0.003 µM was 117%. In series [1] (setting [10]), the viability at 24 h, 1000 µM turned out to be 74%; the viability at 24 h, 300 µM was 90%; the viability at 24 h, 100 µM was 94%; the viability at 24 h, 30 µM was found to be 90%. In addition, in series [1] (setting [10]), the viability at 24 h, 10 µM is 103%; the viability at 24 h, 3 µM turned out to be 110%; the viability at 24 h, 0.3 µM was 113%; the viability at 24 h, 0.03 µM was 116%. In addition, the viability at 24 h, 0.003 µM in series [1] (setting [10]) is 119%. The CC50 at 24 h in series [1] (setting [11]) stood at 3470 µM. Also, the “% of Viability” value in series [2] (Log [inhibitor] -2.52) was 42% and 63%. Further, the “% of Viability” value in series [2] (Log [inhibitor] -4.00) is recorded as 88%. Besides, in series [2] (Log [inhibitor] -4.52), the “% of Viability” value was found to be 84%. The “% of Viability” value in series [2] (Log [inhibitor] -5.00) is listed as 99%. Also, the “% of Viability” value in series [2] (Log [inhibitor] -6.52) is listed as 109%. Besides, the “% of Viability” value in series [2] (Log [inhibitor] -7.52) came out at 105%. Besides, the “% of Viability” value in series [2] (Log [inhibitor] -8.52) was found to be 115%.
Regarding `CC(=O)NC(CCC(N)=O)C(=O)NC(CC1CCCCC1)C(=O)NC(CCCNC(=N)N)C(=O)c1nc2ccccc2s1` (stereo not drawn) [Compound N-0676], in series [3], the “TMPRSS2 activity (%)” value was 95.6684% and 87.7074% and 100.707%; the inhibition at 0.01 µM came out at 8%. Also, the inhibition at 0.1 µM in series [4] (Severe acute respiratory syndrome coronavirus 2, Calu-3, read-out: inhibition of SARS-CoV-2 infection) was less than 53%.
In the case of `CC(=O)N[C@@H](CCC(N)=O)C(=O)N[C@@H](Cc1ccccc1)C(=O)N[C@@H](CCCNC(=N)N)C(=O)c1nc2ccccc2s1` [Compound N-386], in series [1] (setting [9]), the viability at 24 h, 3000 µM was 46%; the viability at 24 h, 300 µM turned out to be 82.5%; the viability at 24 h, 100 µM was determined as 87%; the viability at 24 h, 30 µM came out at 87.5%. In series [1] (setting [9]), the viability at 24 h, 10 µM came out at 87%; the viability at 24 h, 3 µM is 95%; the viability at 24 h, 0.3 µM worked out at 100%; the viability at 24 h, 0.03 µM came to 104%. Moreover, the viability at 24 h, 0.003 µM in series [1] (setting [9]) stood at 102%. Besides, in series [1] (setting [10]), the viability at 24 h, 3000 µM amounted to 44%; the viability at 24 h, 300 µM stood at 79%; the viability at 24 h, 100 µM turned out to be 86%; the viability at 24 h, 30 µM stood at 85%. Further, in series [1] (setting [10]), the viability at 24 h, 10 µM is 86%; the viability at 24 h, 3 µM turned out to be 95%; the viability at 24 h, 0.3 µM was 98%; the viability at 24 h, 0.03 µM came to 101%. For the same molecule, the viability at 24 h, 0.003 µM in series [1] (setting [10]) worked out at 102%. In addition, the CC50 at 24 h in series [1] (setting [11]) came to 1880 µM. The “% of Viability” value in series [2] (Log [inhibitor] -2.52) was 48%. For the same molecule, in series [2] (Log [inhibitor] -4.00), the “% of Viability” value was determined as 88%. Besides, the “% of Viability” value in series [2] (Log [inhibitor] -4.52) is given as 90%. For the same molecule, the “% of Viability” value in series [2] (Log [inhibitor] -5.00) is 88%. Besides, the “% of Viability” value in series [2] (Log [inhibitor] -7.52) amounted to 106%.
Take `CC(=O)N[C@@H](CCC(N)=O)C(=O)N[C@@H](Cc1ccccc1)C(=O)N[C@@H](CCCNC(=N)N)C(=O)c1nc2ccccc2s1` [Compound N-00386]: the Ki was 0.0111 µM and 0.00728 µM and 0.00899 µM in series [5] (setting [12]); 7.72 µM and 7.58 µM and 7.87 µM in series [6] (setting [13]).
As to `CS(=O)(=O)N[C@@H](CCC(N)=O)C(=O)N[C@@H](Cc1ccccc1)C(=O)N[C@@H](CCCNC(=N)N)C(=O)c1nc2ccccc2s1` [Compound N-00385], the Ki in series [5] (setting [12]) was 0.0253 µM and 0.0169 µM and 0.0346 µM; in series [6] (setting [13]) it was 9.7 µM and 9.06 µM and 3.83 µM and 2.57 µM.
Take `N=C(N)NCCCC(NC(=O)C(Cc1ccccc1)NC(=O)C(CCC(N)=O)NC(=N)N)C(=O)c1nc2ccccc2s1` (stereo not drawn) [Compound N-1296]: in series [3], the “TMPRSS2 activity (%)” value is 93.2686% and 83.3862% and 77.4595%; the inhibition at 0.01 µM amounted to 16%. The Nucleocapsid in series [4] (setting [14]) was 31.7311 and 81.7299. Moreover, in series [4] (setting [15]), the dsRNA was 37.1641 and 78.8536. Besides, in series [4] (setting [16]), the inhibition at 0.1 µM was less than 44%.
Turning to `CC(=O)NC(CCC(N)=O)C(=O)NC(Cc1ccccc1)C(=O)NC(CCCNC(=N)N)C(=O)c1nc2ccccc2s1` (stereo not drawn) [Compound N-0386, Ac-QFR-kbt], the Ki in series [5] (mean ± s.d., max concentration 10 µM, read-out: Ki DESC1) was 0.0091 ± 0.0019 µM; in series [7], greater than 10 µM; in series [6] (mean ± s.d., max concentration 10 µM, read-out: Ki Cathepsin L) it was 7.72 ± 0.142 µM; in series [8], greater than 10 µM. For the same molecule, the “TMPRSS2 activity (%)” value in series [3] was 22.2147% and 27.837% and 33.2674%. In addition, the inhibition at 0.01 µM in series [3] was determined as 73%. In series [1] (Calu-3 lung epithelial cells, n = 2, read-out: CC50 in Calu-3 cells), the CC50 at 24 h is 1880 µM. The Nucleocapsid in series [4] (setting [14]) is 0.1229 and 1.4208. Also, the dsRNA in series [4] (setting [15]) was 0.2037 and 0. Moreover, in series [4] (Severe acute respiratory syndrome coronavirus 2, Calu-3; read-out: SARS-CoV-2 VIDO Nucleocapsid EC50 ± SE), the EC50 was found to be 0.0023 ± 0.0017 µM. Moreover, the inhibition at 0.1 µM in series [4] (setting [16]) was greater than 99%. Besides, the “Figure 2b dose-response, Mean” value in series [4] (log [C] (nM) 0.20412) is listed as 63.391; in series [4] (log [C] (nM) 0.90309), 26.1724; in series [4] (log [C] (nM) 1.60206), 7.727; in series [4] (log [C] (nM) 2.30103) it was 6.997; in series [4] (log [C] (nM) 3), 2.833; in series [4] (log [C] (nM) -0.49485) it was 81.0636. Further, the “Figure 2b dose-response, Mean” value in series [4] (log [C] (nM) -1.19382) amounted to 95.046.
